Source: patent US9120756B2, “Substituted phenylureas and phenylamides as vanilloid receptor ligands” (Gruenenthal GmbH, priority 2009, dated 2015)

Legend:
hVR1 = hVR1 (Homo sapiens (Human), UniProt Q8NER1); assay: FLIPR assay human VR1, 45° C. stimulus; type: cell-based; conditions: inhibition determined at 2.5 μM, read-out: IC50 (human being) 45° C. column: inhibition (as a percentage) @ 2.5 μM
From the text: The agonistic or antagonistic effect of the substances to be tested on the vanilloid receptor 1 (VR1) can also be determined using the following assay. In this assay, the influx of Ca^2+ through the channel is quantified with the aid of a Ca^2+-sensitive dye (type Fluo-4, Molecular Probes Europe BV, Leiden, the Netherlands) in a fluorescent imaging plate reader (FLIPR, Molecular Devices, Sunnyvale, USA).
Chinese hamster ovary cells (CHO K1 cells, European Collection of Cell Cultures (ECACC) United Kingdom) are stably transfected with the VR1 gene. For functional testing, these cells are plated out on poly-D-lysine-coated black 96-well plates having a clear base (BD Biosciences, Heidelberg, Germany) at a density of 25,000 cells/well. The cells are incubated overnight at 37° C. and 5% CO2 in a culture medium (Ham's F12 nutrient mixture, 10% by volume of FCS (foetal calf serum), 18 μg/ml of L-proline). The next day the cells are incubated with Fluo-4 (Fluo-4 2 μM, 0.01% by volume of Pluronic F127, Molecular Probes in HBSS (Hank's buffered saline solution), Gibco Invitrogen GmbH, Karlsruhe, Germany) for 30 minutes at 37° C. Subsequently, the plates are washed three times with HBSS buffer and after further incubation for 15 minutes at RT used for Ca^2+ measurement in a FLIPR assay. The Ca^2+-dependent fluorescence is measured before and after the addition of the substances to be tested (λex wavelength=488 nm, λem=540 nm). Quantification is carried out by measuring the highest fluorescence intensity (FC, fluorescence counts) over time.
The FLIPR protocol consists of 2 substance additions. […]
Desensitising agonists and antagonists led to suppression of the Ca^2+ influx.
Ki values for the test substances were obtained by conversion by means of the Cheng-Prusoff equation (Cheng, Prusoff; Biochem. Pharmacol. 22, 3099-3108, 1973).

mice = assay: Formalin test carried out on mice (FTm); type: in vivo; conditions: 1 po, percentage change relative to control
Protocol: In the formalin test, the testing to determine the antinociceptive effect of the compounds according to the invention is carried out on male mice (NMRI, 20 to 30 g body weight, Iffa, Credo, Belgium).
In the formalin test as described by D. Dubuisson et al., Pain 1977, 4, 161-174, a distinction is drawn between the first (early) phase (0 to 15 minutes after the injection of formalin) and the second (late) phase (15 to 60 minutes after the injection of formalin). The early phase, as an immediate reaction to the injection of formalin, is a model of acute pain, whereas the late phase is regarded as a model of persistent (chronic) pain (T. J. Coderre et al., Pain 1993, 52, 259-285). The corresponding descriptions in the literature are introduced herewith by way of reference and form part of the disclosure.
The compounds according to the invention are tested in the second phase of the formalin test to obtain information about the effects of substances on chronic/inflammatory pain. […]
Subsequently, the nociceptive behaviour is continuously detected by observing the animals over a test period of three minutes in the second (late) phase of the formalin test (21 to 24 minutes after the injection of formalin). The pain behaviour is quantified by adding up the seconds over which the animals display licking and biting of the paw in question during the test period. […]

Sequence of hVR1 (Q8NER1 whole entry): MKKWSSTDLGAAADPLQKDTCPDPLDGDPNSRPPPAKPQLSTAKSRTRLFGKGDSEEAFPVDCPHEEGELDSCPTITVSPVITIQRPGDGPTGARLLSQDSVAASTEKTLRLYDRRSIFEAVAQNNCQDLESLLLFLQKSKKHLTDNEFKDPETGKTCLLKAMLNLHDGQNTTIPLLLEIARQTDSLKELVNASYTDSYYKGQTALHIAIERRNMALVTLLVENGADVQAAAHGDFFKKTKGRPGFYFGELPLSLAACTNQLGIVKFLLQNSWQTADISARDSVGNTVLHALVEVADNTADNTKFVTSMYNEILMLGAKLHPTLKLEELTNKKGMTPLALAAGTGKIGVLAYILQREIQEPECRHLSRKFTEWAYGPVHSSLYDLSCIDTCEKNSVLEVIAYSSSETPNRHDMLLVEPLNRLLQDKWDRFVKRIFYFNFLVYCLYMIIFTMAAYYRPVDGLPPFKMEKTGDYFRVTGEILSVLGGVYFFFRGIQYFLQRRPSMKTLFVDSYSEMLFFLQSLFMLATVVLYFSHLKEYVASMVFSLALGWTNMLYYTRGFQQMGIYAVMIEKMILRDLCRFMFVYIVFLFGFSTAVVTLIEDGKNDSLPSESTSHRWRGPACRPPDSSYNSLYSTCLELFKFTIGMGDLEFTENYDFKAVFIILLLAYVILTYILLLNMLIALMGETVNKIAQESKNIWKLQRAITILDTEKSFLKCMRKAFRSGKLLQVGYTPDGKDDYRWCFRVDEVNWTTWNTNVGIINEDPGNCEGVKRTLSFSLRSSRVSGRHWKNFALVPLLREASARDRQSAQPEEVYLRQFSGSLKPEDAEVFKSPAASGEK

O=C(Cc1cccc(F)c1)NCc1cc(C(F)(F)F)nn1-c1cccc(Cl)c1 [Example 74, N-((1-(3-chlorophenyl)-3-(trifluoromethyl)-1H-pyrazol-5-yl)methyl)-2-(3-fluorophenyl)acetamide]
inhibition at 2.5 µM (hVR1): 12%
FTm (mice): 13%
